Legend:
Format in all cases: cell-based
Cellulomonas flavigena = assay: Poison plate assay, synergistic effect in combinations with BIT; settings: for Calculated activity: Limpel's formula
Method: (§1) Biocidal activity against bacterial/yeast growth was determined with the poison plate assay. To obtain the required concentrations of the test compound, calculated amounts of stock solutions (DMSO) were pipetted into multi-well plates. Tryptose agar (except for Rhodotorula: PDA) was added aseptically and uniform distribution was obtained by shaking. Each plate was inoculated with a bacterial/yeast suspension. After incubation at 27° C. and 70% relative humidity, for a period long enough to allow complete growth of controls, percentage activity as compared to the control was scored.
(§2) Possible synergy was investigated using Limpel's formula (Richter, D. L., Pestic. Sci. 1987, 19: 309-315): [formula]
(§3) where EC is the expected additive response, or calculated activity, X is the observed percentage control when compound A is applied alone and Y is the observed percentage control when compound B is applied alone. Synergy was considered to occur when the observed effect, or measured activity, of a combination of both compounds was greater than the corresponding EC value.
(§4) The table C.4 to C.6 below enumerate the measured and calculated activities of BIT and compounds 20, 42 and 40 when tested as a single test compound or as a combination against Rhodotorula rubra or Cellulomonas flavigena. BIT (1,2-benzisothiazol-3(2H)-one) is a well-known bacteride and was tested at a concentration of 25 and 50 μmol. Compounds 20, 40 and 42 were tested at a concentration of 25, 50 and 75 μmol. When a synergistic effect was observed, the “measured” and “calculated” activity are indicated with a bold typeface.

Rhodotorula rubra [1] = assay: as above; settings: for Calculated activity: Limpel's formula
Method: as §1, §2, §3, §4

Rhodotorula rubra [2] = assay: Screening against yeasts; settings: test compound concentration 500 μmol
Method: (§5) The stock solutions with the test compounds were pipetted into multiwell plates and mixed with warm tryptose broth agar (2.6%) in order to reach a test compound concentration of 500 μMol. The medium was allowed to cool and subsequently inoculated with the bacteria. Wells were placed in an incubator at 27° C. and a relative humidity of 70%. After sufficient growth of the untreated cultures, the test was evaluated.
(§6) 3: complete inhibition of bacterial growth
(§7) 2: bacterial growth partially controlled
(§8) A number of compounds of formula (I) were also tested in a screening against certain The test conditions are the same as described in biological example C.1. The concentration of the test compound was also 500 μmol, and the scoring system used was also the same.

Providencia rettgeri = assay: Poison plate assay, combinations with BAC; settings: for Calculated activity: Limpel's formula
Method: as §1, §2, §3
The table C.7 to C.8 below enumerate the measured and calculated activities of BAC and compounds 20, 42 and 40 when tested as a single test compound or as a combination against Providencia rettgeri. BAC (benzalconium chloride) is a well-bacteride and was tested at a concentration of 40 and 80 μmol. Compounds 20, 40 and 42 were tested at a concentration of 10, 20, 40, 80 and 160 μmol. When a synergistic effect was observed, the “measured” and “calculated” activity are indicated with a bold typeface.

Sporobolomyces roseus = assay: Screening against yeasts; settings: test compound concentration 500 μmol
Method: as §5, §6, §7, §8
Sporobolomyces roseus (21)

Debaryomyces hansenii = assay: Screening against yeasts; settings: test compound concentration 500 μM
Method: as §5, §6, §7, §8
Debaryomyces hansenii (19)

Escherichia coli = assay: Primary bacteria screening; settings: test compound concentration 500 μMol in tryptose broth agar, 27° C.
Procedure, shortened: (§9)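 Compounds at 500 μMol final were mixed into warm 2.6% tryptose broth agar, then inoculated with bacteria and incubated at 27° C, 70% relative humidity. Growth was scored once untreated cultures had grown sufficiently: 3 = complete inhibition, 2 = partial control.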

Pseudomonas aeruginosa = assay: Primary bacteria screening; settings: test compound concentration 500 μMol in tryptose broth agar, 27° C.
Procedure, shortened: as §9

[3] = combination BIT 25 μmol + compound 25 μmol
[4] = combination BIT 25 μmol + compound 50 μmol
[5] = combination BIT 25 μmol + compound 75 μmol
[6] = combination BIT 50 μmol + compound 25 μmol
[7] = combination BIT 50 μmol + compound 50 μmol
[8] = combination BIT 50 μmol + compound 75 μmol

O=c1[nH]sc2ccccc12 [BIT, 1,2-benzisothiazol-3(2H)-one, reference compound]
100%: Measured activity (Cellulomonas flavigena; BIT alone 50 μmol)
0%: Measured activity (Cellulomonas flavigena; BIT alone 25 μmol) | Measured activity (Rhodotorula rubra [1]; BIT alone 25 μmol) | Measured activity (Rhodotorula rubra [1]; BIT alone 50 μmol)

Cl.Cl.O.c1ccc(-c2ccc(C(c3ccccc3)C3CCN(C4CCNCC4)CC3)cc2)cc1 (racemic) [Co. No. 20, (±)-4-[[(1,1′-biphenyl)-4-yl]phenylmethyl](1,4′-bipiperidine)dihydrochloride monohydrate]
95%: Measured activity (Cellulomonas flavigena; [5])
0%: Calculated activity (Providencia rettgeri; BAC 40 μmol + compound 10 μmol) | Calculated activity (Providencia rettgeri; BAC 40 μmol + compound 20 μmol) | Measured activity (Providencia rettgeri; compound alone 10 μmol) | Measured activity (Providencia rettgeri; compound alone 20 μmol) | Calculated activity (Cellulomonas flavigena; BIT 25 μmol + compound 25 μmol) | Calculated activity (Cellulomonas flavigena; BIT 25 μmol + compound 50 μmol) | Calculated activity (Cellulomonas flavigena; BIT 25 μmol + compound 75 μmol) | Measured activity (Cellulomonas flavigena; [3]) | Measured activity (Cellulomonas flavigena; compound alone 25 μmol) | Measured activity (Cellulomonas flavigena; compound alone 50 μmol) | Measured activity (Cellulomonas flavigena; compound alone 75 μmol) | Calculated activity (Rhodotorula rubra [1]; BIT 25 μmol + compound 25 μmol) | Calculated activity (Rhodotorula rubra [1]; BIT 25 μmol + compound 50 μmol) | Calculated activity (Rhodotorula rubra [1]; BIT 25 μmol + compound 75 μmol) | Calculated activity (Rhodotorula rubra [1]; BIT 50 μmol + compound 25 μmol) | Calculated activity (Rhodotorula rubra [1]; BIT 50 μmol + compound 50 μmol) | Calculated activity (Rhodotorula rubra [1]; BIT 50 μmol + compound 75 μmol) | Measured activity (Rhodotorula rubra [1]; [3]) | Measured activity (Rhodotorula rubra [1]; compound alone 25 μmol) | Measured activity (Rhodotorula rubra [1]; compound alone 50 μmol) | Measured activity (Rhodotorula rubra [1]; compound alone 75 μmol)
100%: Calculated activity (Providencia rettgeri; BAC 40 μmol + compound 160 μmol) | Calculated activity (Providencia rettgeri; BAC 80 μmol + compound 10 μmol) | Calculated activity (Providencia rettgeri; BAC 80 μmol + compound 20 μmol) | Calculated activity (Providencia rettgeri; BAC 80 μmol + compound 40 μmol) | Calculated activity (Providencia rettgeri; BAC 80 μmol + compound 80 μmol) | Calculated activity (Providencia rettgeri; BAC 80 μmol + compound 160 μmol) | Measured activity (Providencia rettgeri; combination BAC 40 μmol + compound 40 μmol) | Measured activity (Providencia rettgeri; combination BAC 40 μmol + compound 80 μmol) | Measured activity (Providencia rettgeri; combination BAC 40 μmol + compound 160 μmol) | Measured activity (Providencia rettgeri; combination BAC 80 μmol + compound 10 μmol) | Measured activity (Providencia rettgeri; combination BAC 80 μmol + compound 20 μmol) | Measured activity (Providencia rettgeri; combination BAC 80 μmol + compound 40 μmol) | Measured activity (Providencia rettgeri; combination BAC 80 μmol + compound 80 μmol) | Measured activity (Providencia rettgeri; combination BAC 80 μmol + compound 160 μmol) | Measured activity (Providencia rettgeri; compound alone 160 μmol) | Calculated activity (Cellulomonas flavigena; BIT 50 μmol + compound 25 μmol) | Calculated activity (Cellulomonas flavigena; BIT 50 μmol + compound 50 μmol) | Calculated activity (Cellulomonas flavigena; BIT 50 μmol + compound 75 μmol) | Measured activity (Cellulomonas flavigena; [4]) | Measured activity (Cellulomonas flavigena; [6]) | Measured activity (Cellulomonas flavigena; [7]) | Measured activity (Cellulomonas flavigena; [8]) | Measured activity (Rhodotorula rubra [1]; [4]) | Measured activity (Rhodotorula rubra [1]; [5]) | Measured activity (Rhodotorula rubra [1]; [6]) | Measured activity (Rhodotorula rubra [1]; [7]) | Measured activity (Rhodotorula rubra [1]; [8])
50%: Measured activity (Providencia rettgeri; combination BAC 40 μmol + compound 10 μmol) | Measured activity (Providencia rettgeri; combination BAC 40 μmol + compound 20 μmol)
30%: Calculated activity (Providencia rettgeri; BAC 40 μmol + compound 40 μmol) | Measured activity (Providencia rettgeri; compound alone 40 μmol)
3: Test yeast (20) Rhodotorula rubra (score) (Rhodotorula rubra [2]) | Test yeast (21) Sporobolomyces roseus (score) (Sporobolomyces roseus) | Test yeast (19) Debaryomyces hansenii (score) (Debaryomyces hansenii) | E. coli (growth inhibition score) (Escherichia coli) | P. aeruginosa (growth inhibition score) (Pseudomonas aeruginosa)
90%: Calculated activity (Providencia rettgeri; BAC 40 μmol + compound 80 μmol) | Measured activity (Providencia rettgeri; compound alone 80 μmol)

— US6440440B1, “Biocidal benzylbiphenyl derivatives” (priority 1998, dated 2002)
